The values that follow come from patent US20150327444A1, “PROCESS FOR THE OVERPRODUCTION OF SHIKIMIC ACID AND PHENOLIC ACIDS IN FRUIT AND VEGETABLE CROPS” (Instituto Tecnologico y de Estudios Superiores de Monterry, priority 2013, published 2015).

Bounds are passed on as bounds.

Experiment [1] has as its system carrots (Daucus carota). Description: Overproduction of SA and PC by wounding stress and sprayed glyphosate 482 g/L in carrot tissue (Example 6). The procedure: (§1) The plant material used in this example comprised carrots (Daucus carota) obtained from a local supermarket (Monterrey, N. L., Mexico), which were washed and disinfected with chlorinated water in a concentration of 200 ppm, pH 6.5, in a ratio of 1:3 kg of plant material:liters of chlorinated water, for 10 min.
(§2) This stage was carried out by grating the carrot with a commercial vegetable grater. Stressed grated carrots having a diameter of 0.7 cm were obtained.
(§3) In this stage, the stressed grated plant tissue was treated by spraying (commercial sprayer) 100 mL of a concentrated solution of glyphosate (482 g/L).
Finally, the treated grated material was incubated at 25° C. for 24 hours at atmospheric pressure with a relative humidity of 65%, in total darkness, to determine the combined effect of wounding stress and glyphosate application on the accumulation of SA and PC.

Experiment [2] has as its system carrots (Daucus carota). Briefly: Effect of grinding on SA and PC in wounding-stressed, glyphosate-sprayed carrot tissue (Example 8). The procedure:
as §1, §2, §3
The treated grated material was incubated at 25° C. […] at atmospheric pressure with a relative humidity of 65%, in total darkness, to determine the combined effect of wounding stress and glyphosate application on the accumulation of SA and PC.

Experiment [3] has as its system carrots (Daucus carota). Description: Effect of drying on SA and PC in wounding-stressed, glyphosate-sprayed carrot tissue (Example 7). The note with it: for Increase in concentration in dehydrated glyphosated grated material stored for 24 hours: vs grated carrot prior to storage (0 hours). Here is the method:
The plant material used in this example comprised carrots (Daucus carota) obtained from a local supermarket (Monterrey, N. L., Mexico), which were washed and disinfected with chlorinated water in a concentration of 200 ppm, pH 6.5, in a ratio of 1:3 kg of plant material:liters of chlorinated water, for 10 min. This stage was carried out by grating the carrot with a commercial vegetable grater.

The test system of experiment [4] is carrots (Daucus carota). Briefly: Effect of drying on accumulation of SA in wounding-stressed grated carrot (Example 2). The note with it: vs grated carrot prior to storage (0 hours). The procedure:
as §1
(§4) This stage was carried out by grating the carrot with a commercial vegetable grater. Stressed grated carrots having a diameter of 0.7 cm were obtained. […]
(§5) The SA extracts were analyzed following a method reported by Zelaya, I. A., Anderson, J. A., Owen, M. D. and Landes, R. D. Evaluation of spectrophotometric and HPLC methods for shikimic acid determination in plants: models in glyphosate-resistant and susceptible crops. […] The SA oxidized through the effect of the reaction was detected at 382 nm using a microplates reader (Synergy HT, Bio-Tek Instruments Inc., Winooski, Vt., USA). A standard curve for SA was constructed (1-1000 μM) to quantify the compound. The SA concentration was expressed as mg per kg of carrots in dry base (DB). The moisture content in the samples was determined by the method of drying in a stove (AACC 44-15A).

Experiment [5] concerns carrots (Daucus carota). Briefly: Effect of wounding stress on accumulation of SA in grated carrot during storage (Example 1). The note with it: vs grated carrot prior to storage (0 hours); 25° C., no glyphosate. The procedure:
as §1
Stage a) The previously washed and disinfected carrots were subjected to post-harvest abiotic stress.
as §2
Stage b) Incubation of the grated carrot stressed in a) to encourage the production and accumulation of SA and PC. […]
The SA was extracted from the horticultural crop using two different processes based on the method of detection and quantification which was to be used (spectrophotometry or chromatography). […]
The SA extracts were analyzed following a method reported by Zelaya, I. A., Anderson, J. A., Owen, M. D. and Landes, R. D. Evaluation of spectrophotometric and HPLC methods for shikimic acid determination in plants: models in glyphosate-resistant and susceptible crops. […] The SA oxidized through the effect of the reaction was detected at 382 nm using a microplates reader (Synergy HT, Bio-Tek Instruments Inc., Winooski, Vt., USA). A standard curve for SA was constructed (1-1000 μM) to quantify the compound. […]

The test system of experiment [6] is carrots (Daucus carota). Description: HPLC-PDA quantification of SA and individual phenolic compounds in grated carrot sprayed with glyphosate at different concentrations (Example 5). The conditions noted are these: after 24 hours' storage; estimated from HPLC-PDA.
Experiment [7] concerns carrots (Daucus carota). Description: Effect of grinding on accumulation of SA in wounding-stressed grated carrot (Example 3). The note with it: vs grated carrot prior to storage (0 hours). Here is the method: as §1, §4, §5
Experiment [8] concerns carrots (Daucus carota). Briefly: Effect of method of application (submergence or spraying) of glyphosate solution on SA accumulation in grated carrot (Example 4). The note with it: glyphosate 482 g/L, 24 hours at 25° C. An excerpt: This difference is attributed to the removal of signal molecules which induce the response to the wounding as part of the submergence process. The (at least partial) removal of extracellular adenosine triphosphate (eATP, produced by the wounding stress effect) occurs in the submerged material, and this may be related to lesser generation of reactive oxygen species (ROS), thus reducing the yield of SA in comparison with application by spraying. Abiotic wounding stress activates the metabolic pathways involved in the production of phenolic compounds while the application of glyphosate makes it possible to block the flow of SA to the production of other compounds, thus bringing about an accumulation of SA in the horticultural crop. Thus the wounded carrots have been treated with a solution of glyphosate (0-482 g/L) using one of the two different methods of application (submergence and spraying), the spraying method being preferred because of its better yields, and stored for 24 hours to determine the combined effect of wounding stress and glyphosate application on the accumulation of SA and PC. In the first (submerged) method of application the grated material was submerged in a ratio of 1:2 to 1:4 (kg of plant material:liters of glyphosate solution), in such a way that said material was wholly submerged in the glyphosate solution. […]

Setting [9] is: vs grated carrot before storage (0 hours).
Where [10] appears, read: sprayed 482 g/L glyphosate, vs control samples (0 hours).

Turning to `O=C(/C=C/c1ccc(O)c(O)c1)O[C@@H]1C[C@](O)(C(=O)O)C[C@@H](O)[C@H]1O` (single isomer, unassigned) [CA, chlorogenic acid], the “Increase in concentration on spraying a concentrated solution of glyphosate onto carrot tissue stressed by wounding” value in experiment [1] is reported as over 5000%. The “Increase in content in the 482 g/L glyphosate treatment” value in experiment [1] (vs control samples at 24 hours) is reported as about 1980%; in experiment [2] (vs control samples at 24 hours), about 1940%; in experiment [3] (vs control samples at 24 hours) it was about 1930%. In addition, the “Increase in concentration in dehydrated glyphosated grated material stored for 24 hours” value in experiment [2] (setting [9]) is about 11620%; in experiment [3] it was about 1700%.
Turning to `O=C(O)C1=C[C@@H](O)[C@@H](O)[C@H](O)C1` (single isomer, unassigned) [SA, shikimic acid], in experiment [1], the “Increase in concentration on spraying a concentrated solution of glyphosate onto carrot tissue stressed by wounding” value was “more than 1000%”. Moreover, the figures for the “Increase in concentration after 24 hours of storage” value in experiment [1] (setting [10]) and in experiment [2] (setting [10]) were about 1735% and about 1720%, respectively. The “Increase in concentration in dehydrated nutraceutical grated material stored for 24 hours” value in experiment [4] (after drying) is reported as about 40%. The “Increase in concentration in grated carrot stored for 24 hours” value in experiment [4] (no glyphosate) was about 45%; in experiment [5], about 50%; in experiment [7] (no glyphosate), about 48%. In experiment [6], the “Increase in concentration in grated carrot not sprayed with glyphosate” value is recorded as about 77%. Also, the “Increase in concentration in glyphosated powder stored for 24 hours” value in experiment [2] (setting [9]) is on record as about 1470%. Besides, the “Increase in concentration in nutraceutical powder stored for 24 hours” value in experiment [7] (after drying and grinding) is about 37%. In experiment [8], the “Increase in accumulation, grated carrot sprayed with glyphosate vs submerged samples” value was ~44% and ≈ 44%. In addition, the “Increase in concentration after 24 hours' storage” value in experiment [3] (setting [10]) was about 1766%. Besides, the “Increase in concentration in dehydrated glyphosated grated material stored for 24 hours” value in experiment [3] is about 1550%.
